Drawing on PubChem BioAssay (NCI), this text covers TGI and GI50 for 19 compounds.

Among the test systems are OVCAR-8 ovarian; COLO 205 colon; SNB-19 CNS; KM12 colon; OVCAR-3 ovarian; SK-MEL-28 melanoma; SF-295 CNS; SR leukemia; OVCAR-4 ovarian; TK-10 renal.
Assay in all cases: NCI anticancer screen, dose series, 48 h

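48-hour exposure; five concentrations; linearly interpolated endpoints. The concentration for 50% growth inhibition is given as GI50. TGI marks complete inhibition of growth.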 Where a SMILES comes first, the peptide text is derived from it. Side-chain parts run from the residue outwards. The star is where a group is joined. Cbz = O=C(OCc1ccccc1)*; Boc = CC(C)(C)OC(=O)*

Regarding `CC(C(O)c1ccccc1)[N+](=O)[O-]` (configuration not stated), the TGI with OVCAR-8 ovarian amounted to 35 µM; in the test with COLO 205 colon, 80 µM; in the test on SNB-19 CNS, 66 µM; with KM12 colon it was 50.6 µM; in the test on OVCAR-3 ovarian it was 17.3 µM; with SK-MEL-28 melanoma, 41.5 µM. For the same compound, the TGI in the test with SF-295 CNS was determined as 61.4 µM; in the test on SR leukemia it was 9.82 µM; in the test on OVCAR-4 ovarian, 52.6 µM; in the test with TK-10 renal, 72 µM.
As for `C=CC[C@@]1(C#N)C[C@H](C[C@]2(C#N)C[C@H](CCl)OC(C)(C)O2)OC(C)(C)O1`, the TGI with OVCAR-8 ovarian, with COLO 205 colon, in the test with SNB-19 CNS, in the test on KM12 colon, in the test on OVCAR-3 ovarian and with SK-MEL-28 melanoma was > 100 µM in each case. For the same compound, the TGI in the test with SF-295 CNS, with SR leukemia, in the test with OVCAR-4 ovarian and with TK-10 renal was > 100 µM throughout.
Take `O=C(O)c1ccc(/C=N\N(CCO)C2=NCCN2)cc1`: the TGI with OVCAR-8 ovarian, in the test with COLO 205 colon, in the test with SNB-19 CNS, in the test with KM12 colon, in the test with OVCAR-3 ovarian and with SK-MEL-28 melanoma was > 100 µM each time. The TGI in the test with SF-295 CNS, in the test on SR leukemia, in the test with OVCAR-4 ovarian and in the test on TK-10 renal was > 100 µM in each case.
Regarding `CC1(C)OCC(C2OC(=O)C(OCc3ccccc3)=C2OCc2ccccc2)O1` (configuration not stated), the TGI with OVCAR-8 ovarian was > 100 µM; in the test on COLO 205 colon, 50.6 µM; with SNB-19 CNS it was > 100 µM; in the test on KM12 colon, > 100 µM; in the test with OVCAR-3 ovarian it was > 100 µM; with SK-MEL-28 melanoma, > 100 µM. Further, the TGI in the test on SF-295 CNS, in the test on SR leukemia, in the test on OVCAR-4 ovarian and with TK-10 renal was > 100 µM each time.
Regarding `CCN(CC)CCNC(=O)c1cc2cc(NC(=O)c3cc4cc(NC(=O)c5cc6cc([N+](=O)[O-])ccc6[nH]5)ccc4[nH]3)ccc2[nH]1`, the TGI with OVCAR-8 ovarian, in the test on COLO 205 colon, with SNB-19 CNS, in the test on KM12 colon, with OVCAR-3 ovarian and in the test on SK-MEL-28 melanoma was > 100 µM in each case. Moreover, the TGI was > 100 µM in the test on SF-295 CNS, 14.4 µM with SR leukemia, > 100 µM with OVCAR-4 ovarian and > 100 µM in the test on TK-10 renal.
As for `CS(=O)(=O)OC1CCN(C2(c3cccc(O)c3)CCCCC2)CC1`, the TGI in the test on OVCAR-8 ovarian, in the test on COLO 205 colon, in the test with SNB-19 CNS, in the test with KM12 colon, in the test on OVCAR-3 ovarian and with SK-MEL-28 melanoma was > 100 µM in each case. For the same compound, the TGI with SF-295 CNS is > 100 µM; in the test with SR leukemia, 49.4 µM; with OVCAR-4 ovarian it was > 100 µM; in the test with TK-10 renal, > 100 µM.
Take `CN1CCN(c2ccc3nc(-c4ccc5nc(-c6ccc(N(C)CCCl)cc6)[nH]c5c4)[nH]c3c2)CC1`: the TGI is 1.53 µM with OVCAR-8 ovarian; 0.341 µM in the test with COLO 205 colon; 1.01 µM with SNB-19 CNS; 2.31 µM in the test on KM12 colon; 1.13 µM with SK-MEL-28 melanoma; 11.2 µM with SF-295 CNS. For the same compound, the TGI in the test with SR leukemia came out at 12.5 µM; in the test with OVCAR-4 ovarian, 1.04 µM; in the test with TK-10 renal it was 9.77 µM.
`CCC(C)N1CN(c2ccccc2)C2(CCN(CCCC(=O)c3ccc(F)cc3)CC2)C1=O` (configuration not stated): the TGI with COLO 205 colon came out at 0.348 µM; in the test with OVCAR-3 ovarian, 24.8 µM; in the test on SK-MEL-28 melanoma, 32.1 µM; with SF-295 CNS it was 15.8 µM; in the test on SR leukemia, 23.3 µM; in the test with OVCAR-4 ovarian, 16.2 µM. This compound displayed a TGI in the test on TK-10 renal of 16.5 µM.
As to `O=C1CSC(c2c(O)ccc3ccccc23)N1n1c(=S)[nH]nc(/C=C/c2c(O)ccc3ccccc23)c1=O` (configuration not stated), the TGI is 21.4 µM with OVCAR-8 ovarian; 76.6 µM with SNB-19 CNS; 17.7 µM with OVCAR-3 ovarian; 37.2 µM in the test on SF-295 CNS; 10.9 µM in the test with SR leukemia; 40.3 µM in the test on OVCAR-4 ovarian. This compound yielded a TGI with TK-10 renal of 28.2 µM.
Regarding `COc1ccc2c(c1)-c1c(c3ccccc3n1CCN1CCOCC1)CC2`, the TGI in the test with OVCAR-8 ovarian is 53.2 µM; in the test with COLO 205 colon, 32.5 µM; in the test with SNB-19 CNS it was 71.5 µM; in the test with KM12 colon it was 26.7 µM; in the test on OVCAR-3 ovarian, 56.6 µM; in the test with SK-MEL-28 melanoma it was > 100 µM. The TGI with SF-295 CNS is 35.5 µM; in the test on SR leukemia it was 53.3 µM; with OVCAR-4 ovarian, > 100 µM; with TK-10 renal, 1.78 µM.
On to `CC(=N\N=C\c1ccccn1)/C(C)=N/N=C/c1ccccn1`, for which the TGI in the test with OVCAR-8 ovarian, with COLO 205 colon, in the test with SNB-19 CNS, in the test with KM12 colon, in the test on OVCAR-3 ovarian and in the test with SK-MEL-28 melanoma was > 100 µM in each case. Besides, the TGI with SF-295 CNS, in the test with SR leukemia, in the test with OVCAR-4 ovarian and with TK-10 renal was > 100 µM throughout.
With `C[n+]1c(-c2ccc(/C=N/Nc3n[nH]c(=S)n3N/N=C/c3ccc(-c4cn5ccccc5[n+]4C)cc3)cc2)cn2ccccc21`, the TGI in the test on OVCAR-8 ovarian, in the test with COLO 205 colon, in the test with SNB-19 CNS, with KM12 colon, with SK-MEL-28 melanoma and in the test on SF-295 CNS was > 100 µM in each case. Also, the TGI in the test with SR leukemia, with OVCAR-4 ovarian and in the test on TK-10 renal was > 100 µM throughout.
For the compound `Cc1cc2nc(NS(=O)(=O)c3cc(C)c(Cl)cc3S)[nH]c2cc1C`, the TGI with OVCAR-8 ovarian, in the test with COLO 205 colon, in the test with SNB-19 CNS, in the test with KM12 colon, in the test with OVCAR-3 ovarian and in the test with SK-MEL-28 melanoma was > 100 µM throughout. Further, the TGI with SF-295 CNS, with SR leukemia, in the test on OVCAR-4 ovarian and with TK-10 renal was > 100 µM in each case.
In the case of `CCOC(=O)C1CCn2c(nc3c(=O)n(C)c(=O)n(C)c32)S1` (configuration not stated), the TGI with OVCAR-8 ovarian, in the test with SNB-19 CNS, in the test on OVCAR-3 ovarian, in the test on SF-295 CNS, in the test with SR leukemia and in the test with OVCAR-4 ovarian was > 100 µM throughout. Further, the TGI with TK-10 renal is > 100 µM.
As to `COc1cc(C2c3cc4c(cc3OC(N3CCOCC3)C2C)OCO4)cc(OC)c1OC` (configuration not stated), the TGI in the test on OVCAR-8 ovarian is 59.2 µM; in the test on COLO 205 colon, > 71.3 µM; in the test with SNB-19 CNS, 18.7 µM; in the test with KM12 colon it was 14 µM; in the test with OVCAR-3 ovarian, > 23 µM; with SK-MEL-28 melanoma it was > 100 µM. For the same compound, the TGI with SF-295 CNS was 10.4 µM; with SR leukemia it was > 100 µM; with OVCAR-4 ovarian it was > 100 µM; in the test with TK-10 renal, 63.9 µM.
As to `CC(C)CC(NC(=O)OCc1ccccc1)C(=O)NCCCCC(NC(=O)C(CCCCNC(=O)C(CC(C)C)NC(=O)OCc1ccccc1)NC(=O)C(CCCCNC(=O)C(CC(C)C)NC(=O)OCc1ccccc1)NC(=O)C(CCCCNC(=O)C(CC(C)C)NC(=O)OCc1ccccc1)NC(=O)OC(C)(C)C)C(=O)O` (configuration not stated) (Boc-K([Leu-Cbz])K([Leu-Cbz])K([Leu-Cbz])K([Leu-Cbz])-OH; configuration not given here), the TGI in the test with OVCAR-8 ovarian, in the test on SNB-19 CNS, with OVCAR-3 ovarian, in the test with SK-MEL-28 melanoma, with SR leukemia and in the test with OVCAR-4 ovarian was > 25 µM throughout. The TGI with TK-10 renal is > 25 µM.
As for `CCOc1ccc(-n2c(=O)n3c(Nc4ccc(Cl)cc4)nc4c(c(=O)n(C)c(=O)n4C)n3c2=O)cc1`, the TGI is > 100 µM in the test with OVCAR-8 ovarian; 46.4 µM with COLO 205 colon; > 100 µM in the test on SNB-19 CNS; 30.9 µM in the test with KM12 colon; 52.5 µM in the test with OVCAR-3 ovarian; 65.3 µM in the test with SK-MEL-28 melanoma. Besides, the TGI in the test with SF-295 CNS was > 100 µM; in the test on SR leukemia it was 51.6 µM; with OVCAR-4 ovarian it was > 100 µM; with TK-10 renal, 66 µM.
In the case of `O=C(/C=C\c1ccc(OCCCCCC[P+](c2ccccc2)(c2ccccc2)c2ccccc2)cc1)c1ccc2c(c1)OCCO2`, the GI50 was 0.462 µM in the test with SNB-19 CNS; 0.423 µM with OVCAR-3 ovarian; 1.78 µM in the test with SF-295 CNS; 0.656 µM with SR leukemia; 0.415 µM in the test on OVCAR-4 ovarian; 1.58 µM in the test on TK-10 renal. Also, the TGI with SNB-19 CNS turned out to be 1.74 µM; in the test with OVCAR-3 ovarian, 1.61 µM; in the test on SF-295 CNS, 3.46 µM; in the test on SR leukemia it was 9.07 µM; in the test on OVCAR-4 ovarian, 3.42 µM; in the test with TK-10 renal it was 3.81 µM.
Take `Cc1ccc(-c2nc3n(c2/C=N\N=C(N)N)CCS3)cc1`: the TGI with OVCAR-8 ovarian came to 29.3 µM; in the test with COLO 205 colon it was 27.7 µM; in the test with SNB-19 CNS, 28.5 µM; with KM12 colon, 28.5 µM; in the test with SK-MEL-28 melanoma, 29.4 µM; with SF-295 CNS it was 24.6 µM. The values for the TGI in the test on SR leukemia, with OVCAR-4 ovarian and in the test on TK-10 renal were > 100 µM, 30.3 µM and 33.1 µM, respectively.
